Results from patent US20260265305A1, “POLYPEPTIDE DERIVATIVE FOR ORAL DELIVERY” (Hangzhou Sciwind Biosciences Co., Ltd., priority 2023, published 2026).
pEC50: −log10 of the molar value. Numbered stars: 1 amine (or outer) side, 2 acyl side, 3 side chain; on linkers, the order of the positions; unused ones are H or OH. Peptide text beside a SMILES is read from it. * marks the point of attachment. C20 diacid = O=C(O)CCCCCCCCCCCCCCCCCCC(=O)*; C18 diacid = O=C(O)CCCCCCCCCCCCCCCCC(=O)*; βAsp = O=C(O)[C@H](CC(=O)[*:2])N[*:1]; Trx = NC[C@H]1CC[C@H](C(=O)O)CC1; Inp = O=C(O)C1CCNCC1

Columns and labels:
[1] = target: T1, calcitonin receptor (hCTR) (Homo sapiens, UniProt P30988); assay: Calcitonin receptor agonism, CRE-luciferase assay in stably transfected CHO-K1/CALCR/Ga15 cells; format: cell-based; settings: for pEC50: incubation of 24 hours, Table 4, read-out: EC50, activity against the calcitonin receptor in cells; for Fold change in activity against hCTR: relative to D1 as benchmark
T1 construct: host or cells: CHO-K1/CALCR/Ga15 cells, further stably transfected with a CRE-luciferase plasmid
T1 sequence (P30988 25-474): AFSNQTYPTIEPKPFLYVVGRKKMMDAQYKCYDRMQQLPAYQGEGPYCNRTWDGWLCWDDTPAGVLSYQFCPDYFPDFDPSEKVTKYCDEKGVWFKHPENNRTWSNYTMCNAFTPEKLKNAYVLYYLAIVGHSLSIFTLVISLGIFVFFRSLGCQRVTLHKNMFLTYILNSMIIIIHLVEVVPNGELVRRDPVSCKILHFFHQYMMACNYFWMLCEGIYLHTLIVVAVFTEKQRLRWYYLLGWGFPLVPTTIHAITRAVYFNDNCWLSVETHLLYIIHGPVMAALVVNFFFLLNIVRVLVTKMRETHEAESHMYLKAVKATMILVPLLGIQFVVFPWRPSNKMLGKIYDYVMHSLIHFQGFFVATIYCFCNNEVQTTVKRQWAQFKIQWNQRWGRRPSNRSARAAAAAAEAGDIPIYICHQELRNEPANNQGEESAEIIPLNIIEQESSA
Description: Using the standard protocol, CHO-K1/CALCR/Ga15 cells (purchased from GenScript, with the calcitonin receptor constructed already) were transfected with a plasmid containing a luciferase expression cassette driven by multiple copies of cAMP response elements (CREs). The cells were cultured in an F12 medium containing 200 ug/mL Zeocin, 2 ug/mL puromycin, and 100 ug/mL hygromycin to afford a stably transfected calcitonin receptor/CRE-luc cell line.
(§1) To each well of a white 96-well plate was added 50 μL of the tested sample solution at a respective concentration.
The stably transfected calcitonin receptor/CRE-luc CHO cells were resuspended in the growth medium at a certain density, and 50 μL of the cell suspension was added at a density of about 20,000 cells per well to the white 96-well plate containing the tested sample solution. After incubation of 24 hours at 37° C. and 5% CO2, 100 μL of a Luciferase substrate was added to each well, incubated for 3 minutes, and finally was tested for luminescence on SpectraMax L (Molecular Devices) with the software SoftMax Pro 7.0.3 GxP. A standard curve was plotted using the fluorescent intensities for calculation of EC50.

[2] = Heat accelerated stability assay of polypeptide solutions (40° C., pH about 7.4), reversed phase chromatography; format: physicochemical; settings: 40° C.; for Concentration change on 7 d / Concentration change on 26 d: pH about 7.4, 1 mg/mL; for Concentration change on 7 d / Purity change on 7 d: Day 7; for Concentration change on 26 d / Purity change on 26 d: Day 26; for Purity change on 7 d / Purity change on 26 d: reversed phase chromatography 214 nm; for Purity change on 7 d: purity on 7 d − purity on 0 d; for Purity change on 26 d: purity on 26 d − purity on 0 d
Description: A stability test chamber (BINDER GmbH), a 0.01 mg-readability balance (METTLER TOLEDO), a pH meter (METTLER TOLEDO), a biosafety cabinet (ESCO), T2G-II small-sized motor-driven capping machine (Changsha zhongya pharmaceutical equipment co. LTD), a high-speed refrigerated centrifuge (Eppendorf), a sterilizer cabinet (Shinva Medical), Agilent 1260 high-performance liquid chromatographer, and Sepax Bio-C18 4.6*250 mm 3 μm 200 Å reversed phase column were used.
Reagents and consumables included: ultrapure water (18.2 MΩ, self-made), acetonitrile (HPLC grade), trifluoroacetic acid (HPLC grade), sodium dihydrogen phosphate (pharmaceutical grade, Hunan Jiudian Hongyang Pharmaceutical Co., Ltd), hydrochloric acid (pharmaceutical grade, Hunan Er-Kang Pharmaceutical Co., Ltd), sodium hydroxide (Analytical Reagent grade, Hushi®, Sinopharm Chemical Reagent Co., Ltd), vials, rubber stoppers, disposable syringes, and sterile filters.
The lyophilized powder (1 mg/mL) of the polypeptide derivative prepared in accordance with the method of Example 1 was mixed with sodium dihydrogen phosphate (1.42 mg/mL) and dissolved in ultrapure water in the indicated mass-volume ratios. After adjusting pH to about 7.4 with hydrochloric acid/sodium hydroxide, the solution was filtered into a sterilized vial in a clean bench using a 0.22 μm sterile filter. The vial was then capped and placed into the stability test chamber at 40° C. Detections were made on Days 7 (7d) and 26 (26d), and during the assay, changes in the characteristics and properties of the polypeptide were observed and recorded. The sample was then centrifuged for 3 min at 10,000 rpm at 4° C., and the supernatant was transferred to a liquid phase sample vial for detecting the concentration and purity of the polypeptides using liquid phase chromatography described as below, wherein the concentration of the polypeptide=peak area/injection volume/extinction coefficient/60×flow rate, and the purity of the polypeptide=target peak area/total peak area×100%.
Conditions of the reversed phase chromatography Flow rate: 1.0 ml/min; Autosampler temperature: 15° C.; Column temperature: 25° C.; Detection wavelengths: 280 nm and 214 nm; Mobile phase A: 100% H2O+0.05% TFA; Mobile phase B: 100% ACN; and Gradient of elution listed in Table 6: […]

amylin receptor (hAMY3R) = target: T2, amylin receptor (hAMY3R) (Homo sapiens, UniProt O60896+P30988); assay: Amylin receptor agonism testing, CRE-luciferase assay in stably transfected CHO-K1/Ga15/AMY3 cells; format: cell-based; settings: for Fold change in activity against hAMY3R: relative to D1 as benchmark
T2 construct: host or cells: CHO-K1/Ga15/AMY3 cells, further stably transfected with a CRE-luciferase plasmid
T2 sequence (P30988 25-474): T1 sequence (P30988 25-474)
T2 sequence (O60896 24-148): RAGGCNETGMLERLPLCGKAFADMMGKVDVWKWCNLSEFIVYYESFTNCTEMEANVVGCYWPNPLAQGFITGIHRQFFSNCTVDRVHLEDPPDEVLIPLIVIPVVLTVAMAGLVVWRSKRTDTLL
Description: The objective of this assay is to test the potency of the polypeptide derivatives in the present application on amylin and calcitonin receptors in vitro using a luciferase assay.
Using the standard protocol for construction of an amylin receptor/CRE-luc cell line, CHO-K1/Ga15/AMY3 cells (purchased from GenScript, with the calcitonin receptor and the receptor activity modifying peptide (RAMP) constructed already) were transfected with a plasmid containing a luciferase expression cassette driven by multiple copies of cAMP response elements (CREs). The cells were cultured in an F12 medium containing 200 ug/mL Zeocin, 2 ug/mL puromycin, 100 ug/mL hygromycin, and 400 ug/mL G418 to afford a stably transfected amylin receptor/CRE-luc cell line.
as §1
The stably transfected amylin receptor/CRE-luc CHO cells were resuspended in the growth medium at a certain density, and 50 μL of the cell suspension was added at a density of about 20,000 cells per well to the white 96-well plate containing the tested sample solution. After incubation of 24 hours at 37° C. and 5% CO2, 100 μL of a Luciferase substrate was added to each well, incubated for 3 minutes, and finally was tested for luminescence on SpectraMax L (Molecular Devices) with the software SoftMax Pro 7.0.3 GxP. A standard curve was plotted using the fluorescent intensities for calculation of EC50.

SMILES | pEC50 [1] | Fold change in activity against hCTR [1] | Concentration change on 7 d [2] | Concentration change on 26 d [2] [%] | Purity change on 7 d [2] | Purity change on 26 d [2] [%] | Fold change in activity against hAMY3R (amylin receptor (hAMY3R)) | pEC50 (amylin receptor (hAMY3R); Table 5 integrated analysis, read-out: hAMY3R EC50)
CC(C)C[C@H](NC(=O)[C@H](CCCNC(=N)N)NC(=O)CNC(=O)[C@H](CC(C)C)NC(=O)[C@@H](NC(=O)[C@H](C)NC(=O)[C@@H](NC(=O)[C@H](CO)NC(=O)[C@H](CC(C)C)NC(=O)[C@H](CCC(N)=O)NC(=O)[C@H](CO)NC(=O)[C@H](C)NC(=O)[C@H](CCC(=O)O)NC(=O)CCCCCCCCCCCCCCCCC(=O)O)[C@@H](C)O)C(C)C)C(=O)N[C@@H](CO)C(=O)N[C@@H](CC(=O)O)C(=O)N[C@@H](CCC(=O)O)C(=O)N[C@@H](CC(C)C)C(=O)N[C@@H](Cc1c[nH]cn1)C(=O)N[C@@H](CCCNC(=N)N)C(=O)N[C@@H](CC(C)C)C(=O)N[C@@H](CCC(N)=O)C(=O)N[C@@H](CC(=O)O)C(=O)N[C@@H](Cc1ccc(O)cc1)C(=O)N1CCC[C@H]1C(=O)N[C@@H](CCCNC(=N)N)C(=O)N[C@H](C(=O)N[C@@H](CC(=O)O)C(=O)N[C@H](C(=O)NCC(=O)N[C@@H](CO)C(=O)NCC(=O)N[C@@H](CO)C(=O)N1CCC[C@H]1C(N)=O)C(C)C)[C@@H](C)O [M11] ({C18 diacid}-EASQLSTAVLGRLSDELHRLQDYPRTDVGSGSP-NH2) | 10.15 | 1.211 | −3.472% | −9.840 | 1.01% | −2.93 | 2.250 | 
CC(C)C[C@H](NC(=O)[C@H](CCCNC(=N)N)NC(=O)CNC(=O)[C@H](CC(C)C)NC(=O)[C@@H](NC(=O)[C@H](C)NC(=O)[C@@H](NC(=O)[C@H](CO)NC(=O)[C@H](CC(C)C)NC(=O)[C@H](CCC(N)=O)NC(=O)[C@H](CO)NC(=O)[C@H](C)NC(=O)C[C@H](NC(=O)CCCCCCCCCCCCCCCCCCC(=O)O)C(=O)O)[C@@H](C)O)C(C)C)C(=O)N[C@@H](CO)C(=O)N[C@@H](CC(=O)O)C(=O)N[C@@H](CCC(=O)O)C(=O)N[C@@H](CC(C)C)C(=O)N[C@@H](Cc1c[nH]cn1)C(=O)N[C@@H](CCCNC(=N)N)C(=O)N[C@@H](CC(C)C)C(=O)N[C@@H](CCC(N)=O)C(=O)N[C@@H](CC(=O)O)C(=O)N[C@@H](Cc1ccc(O)cc1)C(=O)N1CCC[C@H]1C(=O)N[C@@H](CCCNC(=N)N)C(=O)N[C@H](C(=O)N[C@@H](CC(=O)O)C(=O)N[C@H](C(=O)NCC(=O)N[C@@H](CO)C(=O)NCC(=O)N[C@@H](CO)C(=O)N1CCC[C@H]1C(N)=O)C(C)C)[C@@H](C)O [M12] ({C20 diacid-βAsp}-ASQLSTAVLGRLSDELHRLQDYPRTDVGSGSP-NH2) | 10.14 | 1.178 | No change (concentration change of less than 1% (denoted as “no change”)) | −8.378 | 1.12% | −1.96 | 2.118 | 
CC(C)C[C@H](NC(=O)[C@H](CCCNC(=N)N)NC(=O)CNC(=O)[C@H](CC(C)C)NC(=O)[C@@H](NC(=O)[C@H](C)NC(=O)[C@@H](NC(=O)[C@H](CO)NC(=O)[C@H](CC(C)C)NC(=O)[C@H](CCC(N)=O)NC(=O)[C@H](CO)NC(=O)[C@H](C)NC(=O)[C@H]1CC[C@H](CNC(=O)CCCCCCCCCCCCCCCCCCC(=O)O)CC1)[C@@H](C)O)C(C)C)C(=O)N[C@@H](CO)C(=O)N[C@@H](CC(=O)O)C(=O)N[C@@H](CCC(=O)O)C(=O)N[C@@H](CC(C)C)C(=O)N[C@@H](Cc1c[nH]cn1)C(=O)N[C@@H](CCCNC(=N)N)C(=O)N[C@@H](CC(C)C)C(=O)N[C@@H](CCC(N)=O)C(=O)N[C@@H](CC(=O)O)C(=O)N[C@@H](Cc1ccc(O)cc1)C(=O)N1CCC[C@H]1C(=O)N[C@@H](CCCNC(=N)N)C(=O)N[C@H](C(=O)N[C@@H](CC(=O)O)C(=O)N[C@H](C(=O)NCC(=O)N[C@@H](CO)C(=O)NCC(=O)N[C@@H](CO)C(=O)N1CCC[C@H]1C(N)=O)C(C)C)[C@@H](C)O [M14] ({C20 diacid-Trx}-ASQLSTAVLGRLSDELHRLQDYPRTDVGSGSP-NH2) |  | 0.147 | −3.464% | −8.377 | No change | −1.77 | 0.079 | 
CC(C)C[C@H](NC(=O)[C@H](CCCNC(=N)N)NC(=O)CNC(=O)[C@H](CC(C)C)NC(=O)[C@@H](NC(=O)[C@H](C)NC(=O)[C@@H](NC(=O)[C@H](CO)NC(=O)[C@H](CC(C)C)NC(=O)[C@H](CCC(N)=O)NC(=O)[C@H](CO)NC(=O)[C@H](C)NC(=O)[C@H]1CC[C@H](CNC(=O)CCCCCCCCCCCCCCCCC(=O)O)CC1)[C@@H](C)O)C(C)C)C(=O)N[C@@H](CO)C(=O)N[C@@H](CC(=O)O)C(=O)N[C@@H](CCC(=O)O)C(=O)N[C@@H](CC(C)C)C(=O)N[C@@H](Cc1c[nH]cn1)C(=O)N[C@@H](CCCNC(=N)N)C(=O)N[C@@H](CC(C)C)C(=O)N[C@@H](CCC(N)=O)C(=O)N[C@@H](CC(=O)O)C(=O)N[C@@H](Cc1ccc(O)cc1)C(=O)N1CCC[C@H]1C(=O)N[C@@H](CCCNC(=N)N)C(=O)N[C@H](C(=O)N[C@@H](CC(=O)O)C(=O)N[C@H](C(=O)NCC(=O)N[C@@H](CO)C(=O)NCC(=O)N[C@@H](CO)C(=O)N1CCC[C@H]1C(N)=O)C(C)C)[C@@H](C)O [M15] ({C18 diacid-Trx}-ASQLSTAVLGRLSDELHRLQDYPRTDVGSGSP-NH2) |  | 0.183 | No change (concentration change of less than 1% (denoted as “no change”)) | −10.824 | No change | −5.67 | 0.303 | 9.92
CC(C)C[C@H](NC(=O)[C@H](CCCNC(=N)N)NC(=O)CNC(=O)[C@H](CC(C)C)NC(=O)[C@@H](NC(=O)[C@H](C)NC(=O)[C@@H](NC(=O)[C@H](CO)NC(=O)[C@H](CC(C)C)NC(=O)[C@H](CCC(N)=O)NC(=O)[C@H](CO)NC(=O)[C@H](C)NC(=O)C1CCN(C(=O)CCCCCCCCCCCCCCCCCCC(=O)O)CC1)[C@@H](C)O)C(C)C)C(=O)N[C@@H](CO)C(=O)N[C@@H](CC(=O)O)C(=O)N[C@@H](CCC(=O)O)C(=O)N[C@@H](CC(C)C)C(=O)N[C@@H](Cc1c[nH]cn1)C(=O)N[C@@H](CCCNC(=N)N)C(=O)N[C@@H](CC(C)C)C(=O)N[C@@H](CCC(N)=O)C(=O)N[C@@H](CC(=O)O)C(=O)N[C@@H](Cc1ccc(O)cc1)C(=O)N1CCC[C@H]1C(=O)N[C@@H](CCCNC(=N)N)C(=O)N[C@H](C(=O)N[C@@H](CC(=O)O)C(=O)N[C@H](C(=O)NCC(=O)N[C@@H](CO)C(=O)NCC(=O)N[C@@H](CO)C(=O)N1CCC[C@H]1C(N)=O)C(C)C)[C@@H](C)O [M16] ({C20 diacid-Inp}-ASQLSTAVLGRLSDELHRLQDYPRTDVGSGSP-NH2) | 9.42 | 0.229 | −2.883% | −3.036 | 3.42% | 2.18 | 0.439 | 
